# In patent publication US20070154457A1, “Use of eIF-5A to kill multiple myeloma cells” (Senesco Technologies, Inc., priority 2005, published 2007):
# Starred links: 1 amine or outer side, 2 acyl side, 3 side chain; linkers in the order of their positions; H or OH if unused. Positions of bridges follow the written chain, without caps; N, C: chain ends. Non-standard residues stand in square brackets, D forms with d. Residues, ends and D or L forms follow the SMILES beside them. Chains are numbered I, II in the order given. Actinocin(9to1) = Cc1c2oc3c(C)ccc(C(=O)[*:1])c3nc-2c(C(=O)[*:2])c(N)c1=O; NMeV = CN[C@H](C(=O)O)C(C)C; Sar = CNCC(=O)O
# Tests used:
# [1] = system: A549 lung carcinoma cells; assay: Annexin/PI apoptosis by flow cytometry, A549 cells; type: cell-based; settings: A549 infected with Ad-eIF5A1; JNK inhibitor II 10 μM, U1026 10 μM, Pifithrin-a 30 μM
# Method: A549 lung carcinoma cells were infected with either an adenovirus expressing LacZ (Lac) or eIF5A1 (5A). Four hours after infection, the media was replaced with media containing either DMSO, 10 μM of the p38 inhibitor SB203580 (Calbiochem), 10 μM of the JNK inhibitor II (Calbiochem), 10 μM of the MEK inhibitor U1026 (Calbiochem), or 30 μM of the p53 inhibitor Pifithrin-a (Calbiochem). Forty-eight hours later, the cells were harvested and the percentage of cells undergoing apoptosis was determined by Annexin/PI staining (BD Bioscience) followed by analysis by flow cytometry.
# [2] = system: p53; assay: Western blot of p53 and phosphorylated p53 in A549 cells; type: cell-based; settings: A549, inhibitor added 4 hours after infection (U1026 10 μM, Pifithrin-a 30 μM)
# Method: (§1) Western blotting of lysate from A549 cells used for MAPK/SAPK pathway analysis was performed using lysate collected in MAPK lysis buffer (10 mM Tris-pH 7.4, 2% SDS, 10% glycerol). Ten micrograms of lysate was separated on 10% SDS-PAGE gels and transferred to a PVDF membrane. The membrane was blocked for one hour in 5% non-fat skim milk in PBS, washed with PBS and incubated with primary antibody at 1:1000 in 5% BSA/PBS-T overnight at 4° C. with shaking. The MAPK/SAPK antibodies (P-p38, p38, P-JNK, JNK, P-ERK, ERK, p90RSK) were purchased from Cell Signaling. The p53 antibodies used in the A549 study were also obtained from Cell Signaling and used in a similar fashion.
# A549 lung carcinoma cells were infected with either an adenovirus expressing LacZ (Lac) or eIF5A1 (5A). Four hours after infection, the media was replaced with media containing either DMSO, 10 μM of the p38 inhibitor SB203580 (Calbiochem), 10 μM of the JNK inhibitor II (Calbiochem), 10 μM of the MEK inhibitor U1026 (Calbiochem), or 30 μM of the p53 inhibitor Pifithrin-a (Calbiochem). Forty-eight hours later, the cells were treated with EGF for 30 minutes and the cell lysate was harvested. Western blots were performed on the lysate using antibodies directed against either total p53 (p53), or p53 phosphorylated on serine 15 [P-p53(ser15)], or p53 phosphorylated on 37 [P-p53(ser37)].
# [3] = system: MAPK/SAPK signaling pathways; assay: Western blot of MAPK/SAPK pathway activation in A549 cells; type: cell-based; settings: A549 infected with Ad-eIF5A1 or Ad-eIF5A1(K50A), with MEK1 inhibitor
# Method: as §1
# HT-29 cells were infected with 3000 infectious units per cell and experiments with A549 cells were performed using 1500 infectious units per cell.
# [4] = system: eIF5A1; assay: Western blot of eIF5A1 expression in normal colon fibroblasts; type: cell-based; settings: 0.5 μg/ml, 24 hours
# Method: Protein for Western blotting was isolated using boiling lysis buffer [2% SDS, 50 mM Tris-HCl (pH 7.4)]. Protein concentrations were determined using the Bicinchoninic Acid Kit (Sigma). For Western blotting, 5 μg of total protein was fractionated on a 12% SDS-polyacrylamide gel and transferred to a polyvinylidene difluoride membrane. The primary antibodies used were anti-eIF5A (BD Transduction Laboratories; mouse IgG) and anti-β-actin (Oncogene; mouse IgM), both at a dilution of 1:20,000 in 5% milk. The secondary antibodies were anti-mouse IgG conjugated to horseradish peroxidase (HRP; Sigma) and anti-mouse IgM-HRP (Oncogene). Antibody-protein complexes were visualized using the enhanced chemiluminescence method (ECL, Amersham Biosciences). Following detection of eIF5A, the blots were stripped according to the protocol provided by the ECL Plus Western blotting detection system and reprobed with anti-β-actin antibody to confirm equal loading.
# [5] = system: eIF5A1; assay: Indirect immunofluorescence localization of eIF5A1 in HT-29 cells; type: cell-based, human
# Method: HT-29 cells were cultured on poly-L-lysine-coated glass coverslips. Subconfluent cells were incubated for 16 hours with 200 Units of interferon gamma (IFN-γ; Roche Applied Science) followed by TNF-α (100 ng/ml; Leinco Technologies) for times varying from 10 minutes to 8 hours. Alternatively, cells were treated with 1.0 μg/ml Actinomycin D for increasing lengths of time from 30 minutes to 16 hours. The treated cells were fixed with 3% formaldehyde (methanol-free; Polysciences Inc.) for 20 minutes, washed twice for 5 minutes with PBS and once for 5 minutes with PBS containing 100 mM glycine, and permeabilized with 0.2% Triton X-100 in PBS for 4 minutes. Cells were then labeled for immunofluorescence using a standard protocol. The primary antibody was anti-eIF5A (BD Transduction Laboratories; mouse IgG) incubated at a dilution of 1:250 for 1 hour. The secondary antibody was anti-mouse IgG-AlexaFluor 488 (Molecular Probes) used at a dilution of 1:200 for 1 hour. Following antibody labeling, the nuclei were stained with Hoescht 33258, and the labeled cells were observed by fluorescent microscopy.
# [6] = system: eIF5A1; assay: 2-D gel electrophoresis and Western blot of eIF5A1 forms in HT-29 cells; type: cell-based, human; settings: HT-29, beginning 1 hour after treatment, disappearing 24 hours after treatment
# Method: For 2-D gel electrophoresis, HT-29 cell lysate was harvested in cold lysis buffer (7M Urea, 2M Thiourea, 30 mM Tris, 4% CHAPS, protease inhibitor cocktail), sonicated and cleared of debris by centrifugation. Protein concentration was determined using the Bradford method. The first dimensional isolelectric focusing was performed with the Ettan IPGphor Isoelectric Focusing System (Amersham Biosciences) according to the manufacture's instruction. Immobiline DryStrips (7 cm pH 4-7; Amersham Biosciences) were rehydrated in rehydration buffer (8M Urea, 2% CHAPS, 0.2% DTT, 0.5% pH 4-7 IPG buffer, 0.002% Bromophenol blue) along with cell lysate at room temperature for 12 hours. The isoelectric focusing was performed at 500 V for 30 min, 1000 V for 30 min, and 5000 V for 1 hour and 40 min. The protein on the IPG strip gel was then separated by SDS-PAGE and transferred to a PVDF membrane (Amersham Biosciences). Western blotting was performed using eIF5A antibody (BD Biosciences).
# [7] = system: HT-29 cells; assay: XTT and BrdU cell proliferation assays of HT-29 cells (siRNA, GC7); type: cell-based, human; settings: 50 μM for 72 hours, BrdU incorporation
# Method: HT-29 cells were transfected with siRNA on 96-well plates using Lipofectamine 2000 (Invitrogen). Metabolic activity of proliferating cells was measured with the XTT Cell Proliferation Kit (Roche Applied Science). The BrdU Cell Proliferation Kit (Roche Applied Science) was used to measure DNA synthesis following the manufacturer's protocol. For XTT assays performed following adenovirus infection, 5000 cells were plated per well in a 96-well plate. The next day cells were infected with Ad-lacZ, Ad-eIF5A1 and Ad-eIF5A1(K50A) (Ad-eIF5A1M) respectively with untreated cells as negative control and Actinomycin D treated cell as positive control. XTT substrate was added and A475 nm was measured with A690 nm as the reference.
compound,measurement,setting,value
O=C1c2ccccc2-c2n[nH]c3cccc1c23 [JNK inhibitor II],effect of inhibitor on apoptosis induced by eIF5A1,[1],increases apoptosis
Pifithrin-a,effect of inhibitor on Ad-eIF5A1-induced accumulation and phosphorylation of p53,[2],inhibited
same,effect of inhibitor on apoptosis induced by eIF5A1,[1],decreases apoptosis
N#CC(=C(/N)Sc1ccccc1N)/C(C#N)=C(/N)Sc1ccccc1N [U1026],activation of JNK,[3],inhibited the activation of JNK
same,p38 activation,[3],increased p38 activation
same,effect of inhibitor on Ad-eIF5A1-induced accumulation and phosphorylation of p53,[2],inhibited
same,effect of inhibitor on apoptosis induced by eIF5A1,[1],increases apoptosis
"Cc1c2oc3c(C)ccc(C(=O)N[C@@H]4C(=O)N[C@H](C(C)C)C(=O)N5CCC[C@H]5C(=O)N(C)CC(=O)N(C)[C@@H](C(C)C)C(=O)O[C@@H]4C)c3nc-2c(C(=O)N[C@@H]2C(=O)N[C@H](C(C)C)C(=O)N3CCC[C@H]3C(=O)N(C)CC(=O)N(C)[C@@H](C(C)C)C(=O)O[C@@H]2C)c(N)c1=O [Actinomycin D] (I: T[dV]P[Sar][NMeV] / II: T[dV]P[Sar][NMeV]; ester I:1-I:C, II:1-II:C; linker I:N-II:N via Actinocin(9to1))",eIF5A1 protein expression,[4],up-regulated
same,time to shift of eIF5A1 from cytoplasmic to nuclear localization,[5],≤ 90 min
same,deoxyhypusinated form of eIF5A1,[6],increase in the presence of the deoxyhypusinated form of eIF5A1
"N=C(N)NCCCCCCCN [GC7, N1-guanyl-1,7-diaminoheptane]",effect on the growth of the cells,[7],profound effect on the growth
